Reference: the supplement of paper PMC10627819

Legend:
[1] = system: S. pneumoniae D39V; experiment: fitness (endpoint OD595 vs no drug) (fraction); higher = more growth
Method in brief: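 Background-subtracted growth curves were the basis for fitness, taken as the optical density at entry into stationary phase over the robust mean of no-drug control wells. A cap of 1 was applied. The curves came from OD595 readings every 30 min for 14 h at 37 °C, in 384-well plates seeded at OD595 0.01 with 30 µl, or 55 µl for S. pneumoniae.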

[2] = system: B. subtilis 168; experiment: Bliss interaction score (quartile over a dose matrix) (fitness difference); higher = more antagonism (negative = synergy)
Method in brief: (§1)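 The Bliss score was calculated by subtracting the expected fitness, the product of single-drug values, from the observed fitness. OD595 at entry into stationary phase, over the plate's robust no-drug mean and capped at 1, served as the fitness readout. Single-drug values were inferred from combination data, and scores are summarised by quartiles across technical, biological and donor/recipient replicates.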

[3] = system: S. aureus DSM 20231; experiment: as above
Method in brief: as §1

[4] = system: S. aureus Newman; experiment: as above
Method in brief: as §1

[5] = system: S. pneumoniae D39V; experiment: as above
Method in brief: as §1
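Throughout, for Bliss interaction score (quartile over a dose matrix): first quartile when negative (synergy) and third quartile when positive (antagonism).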

Cc1onc(-c2ccccc2)c1C(=O)N[C@@H]1C(=O)N2[C@@H]1SC(C)(C)[C@@H]2C(=O)O [Oxacillin] + CO[C@H]1/C=C/O[C@@]2(C)Oc3c(C)c(O)c4c(O)c(c(/C=N/N5CCN(C)CC5)c(O)c4c3C2=O)NC(=O)/C(C)=C\C=C\[C@H](C)[C@H](O)[C@@H](C)[C@@H](O)[C@@H](C)[C@H](OC(C)=O)[C@@H]1C [Rifampicin]
[1], partner 0.025 µg/mL, one replicate
Details | fitness
first compound 0.01 µg/mL | 0.891
first compound 0.02 µg/mL | 0.801
first compound 0.04 µg/mL | 0.407

[1], partner 0.2 µg/mL
Details | fitness
first compound 0.01 µg/mL | 0.144
first compound 0.02 µg/mL | 0.0871
first compound 0.04 µg/mL | 0.143

Details | Bliss interaction score
[2] | 0.0578
[3] | 0.0464
[4] | 0.0684
[5] | -0.0851

CNC(C)C1CCC(N)C(OC2C(N)CC(N)C(OC3OCC(C)(O)C(NC)C3O)C2O)O1 (centres undefined) [Gentamicin] + C[C@@H](O)[C@H]1C(=O)N2C(C(=O)O)=C(SCCNC=N)C[C@H]12 [Imipenem]
fitness, [1], main component drawn
Details | partner 0.005 µg/mL | partner 0.0065 µg/mL | partner 0.01 µg/mL | partner 0.013 µg/mL | partner 0.02 µg/mL | partner 0.026 µg/mL
first compound 2 µg/mL | 0.924 | 0.989 | 0.915 | ≥ 1 | 0.914 | 0.661
first compound 4 µg/mL | 0.928 | 0.971 | 0.922 | 0.996 | 0.92 | 0.964
first compound 8 µg/mL | 0.895 | 0.917 | 0.864 | 0.931 | 0.874 | 0.892

main component drawn
Details | Bliss interaction score
[2] | 0.199
[3] | 0.0591
[4] | -0.0478
[5] | 0.0671

Clc1ccc(COC(Cn2ccnc2)c2ccc(Cl)cc2Cl)c(Cl)c1 (centres undefined) [Miconazole] + Cc1cc(NS(=O)(=O)c2ccc(N)cc2)no1 [Sulfamethoxazol]
fitness, [1]
Details | first compound 1.073 µg/mL | first compound 2.145 µg/mL | first compound 4.29 µg/mL
partner 1 µg/mL | 0.989 | ≥ 1 | 0.946
partner 2 µg/mL | 0.981 | 0.998 | 0.923
partner 4 µg/mL | 0.999 | 0.988 | 0.924

fitness, [1], one replicate
Details | first compound 1.25 µg/mL | first compound 2.5 µg/mL | first compound 5 µg/mL
partner 1 µg/mL | 0.94 | 0.966 | 0.932
partner 2 µg/mL | 0.894 | 0.955 | 0.908
partner 4 µg/mL | 0.892 | 0.876 | 0.864

Details | Bliss interaction score
[2] | 0.0845
[3] | 0.0319
[4] | 0.0463
[5] | 0.0572

Clc1ccc(COC(Cn2ccnc2)c2ccc(Cl)cc2Cl)c(Cl)c1 (centres undefined) [Miconazole] + CCN(CC)CCOC(=O)c1ccc(N)cc1 [Procaine]
fitness, [1]
Details | first compound 1.073 µg/mL | first compound 2.145 µg/mL | first compound 4.29 µg/mL
partner 85.5 µg/mL | ≥ 1 | ≥ 1 | 0.936
partner 171 µg/mL | 0.993 | 0.999 | 0.899
partner 342 µg/mL | 0.997 | ≥ 1 | 0.871

fitness, [1], one replicate
Details | first compound 1.25 µg/mL | first compound 2.5 µg/mL | first compound 5 µg/mL
partner 85.5 µg/mL | 0.983 | ≥ 1 | ≥ 1
partner 171 µg/mL | 0.971 | 0.976 | 0.992
partner 342 µg/mL | 0.968 | 0.992 | ≥ 1

Details | Bliss interaction score
[2] | 0.0691
[3] | 0.0418
[4] | -0.0389
[5] | 0.0592

Cn1c2cccc(=O)c-2nc2ccccc21 [Pyocyanin] + CO[C@H]1/C=C/O[C@@]2(C)Oc3c(C)c(O)c4c(O)c(c(/C=N/N5CCN(C)CC5)c(O)c4c3C2=O)NC(=O)/C(C)=C\C=C\[C@H](C)[C@H](O)[C@@H](C)[C@@H](O)[C@@H](C)[C@H](OC(C)=O)[C@@H]1C [Rifampicin]
fitness, [1], one replicate
Details | first compound 0.325 µg/mL | first compound 0.65 µg/mL | first compound 1.3 µg/mL
partner 0.025 µg/mL | 0.917 | 0.942 | 0.765
partner 0.2 µg/mL | – | – | 0.021

fitness, [1]
Details | first compound 0.325 µg/mL | first compound 0.65 µg/mL
partner 0.05 µg/mL | – | 0.885
partner 0.2 µg/mL | 0.0407 | 0.178

Details | Bliss interaction score
[2] | -0.0612
[3] | 0.031
[4] | 0.0295
[5] | 0.0928

CNC(C)C1CCC(N)C(OC2C(N)CC(N)C(OC3OCC(C)(O)C(NC)C3O)C2O)O1 (centres undefined) [Gentamicin] + O=C1CN(/N=C/c2ccc([N+](=O)[O-])o2)C(=O)N1 [Nitrofurantoin]
fitness, [1], main component drawn
Details | partner 1.285 µg/mL | partner 2 µg/mL | partner 2.57 µg/mL | partner 4 µg/mL | partner 8 µg/mL
first compound 2 µg/mL | 0.948 | 0.861 | 0.951 | 0.791 | 0.45
first compound 4 µg/mL | 0.943 | 0.897 | 0.945 | 0.747 | 0.409
first compound 8 µg/mL | 0.953 | 0.831 | 0.957 | 0.659 | 0.368

[1], partner 5.14 µg/mL, one replicate, main component drawn
Details | fitness
first compound 2 µg/mL | 0.945
first compound 4 µg/mL | 0.947
first compound 8 µg/mL | 0.918

main component drawn
Details | Bliss interaction score
[2] | -0.138
[3] | -0.0432
[4] | 0.0572
[5] | 0.0782

Clc1ccc(COC(Cn2ccnc2)c2ccc(Cl)cc2Cl)c(Cl)c1 (centres undefined) [Miconazole] + Cc1onc(-c2ccccc2)c1C(=O)N[C@@H]1C(=O)N2[C@@H]1SC(C)(C)[C@@H]2C(=O)O [Oxacillin]
fitness, [1]
Details | first compound 1.073 µg/mL | first compound 1.25 µg/mL | first compound 2.145 µg/mL | first compound 2.5 µg/mL | first compound 4.29 µg/mL | first compound 5 µg/mL
partner 0.01 µg/mL | ≥ 1 | 0.939 | ≥ 1 | 0.938 | 0.928 | 0.946
partner 0.02 µg/mL | 0.977 | 0.864 | 0.906 | 0.874 | 0.716 | 0.892
partner 0.04 µg/mL | – | 0.363 | – | 0.359 | 0.434 | 0.386

Details | Bliss interaction score
[2] | 0.0802
[3] | 0.0539
[4] | 0.0481
[5] | 0.0753

O=C(O)[C@H]1/C(=C/CO)O[C@@H]2CC(=O)N21 [Clavulanic] + COc1cccc2c1C(=O)c1c(O)c3c(c(O)c1C2=O)C[C@@](O)(C(=O)CO)C[C@@H]3O[C@H]1C[C@H](N)[C@H](O)[C@H](C)O1 [Doxorubicin]
Details | Bliss interaction score
[2] | 0.067
[3] | 0.0451
[4] | 0.0836
[5] | 0.0444

CC[C@H]1OC(=O)[C@H](C)[C@@H](O[C@H]2C[C@@](C)(OC)[C@@H](O)[C@H](C)O2)[C@H](C)[C@@H](O[C@@H]2O[C@H](C)C[C@H](N(C)C)[C@H]2O)[C@](C)(O)C[C@@H](C)CN(C)[C@H](C)[C@@H](O)[C@]1(C)O [Azithromycin] + Clc1ccc(COC(Cn2ccnc2)c2ccc(Cl)cc2Cl)c(Cl)c1 [Miconazole]
Details | Bliss interaction score
[2] | 0.0679
[3] | -0.0368
[4] | 0.0828
[5] | 0.0855

O=C(O)[C@H]1/C(=C/CO)O[C@@H]2CC(=O)N21 [Clavulanic] + COc1ccc(C[C@H](N)C(=O)N[C@H]2[C@@H](O)[C@H](n3cnc4c(N(C)C)ncnc43)O[C@@H]2CO)cc1 [Puromycin]
Details | Bliss interaction score
[2] | 0.0481
[3] | 0.0964
[4] | -0.0706
[5] | 0.0764

CNC(C)C1CCC(N)C(OC2C(N)CC(N)C(OC3OCC(C)(O)C(NC)C3O)C2O)O1 (centres undefined) [Gentamicin] + CC[C@H]1OC(=O)[C@H](C)C(=O)[C@H](C)[C@@H](O[C@@H]2O[C@H](C)C[C@H](N(C)C)[C@H]2O)[C@](C)(OC)C[C@@H](C)C(=O)[C@H](C)[C@H]2N(CCCCn3cnc(-c4cccnc4)c3)C(=O)O[C@]12C [Telithromycin]
main component drawn
Details | Bliss interaction score
[2] | 0.0903
[3] | 0.0492
[4] | 0.0544
[5] | 0.0542

O=C(O)[C@H]1/C(=C/CO)O[C@@H]2CC(=O)N21 [Clavulanic] + CN(C)[C@@H]1C(O)=C(C(N)=O)C(=O)[C@@]2(O)C(O)=C3C(=O)c4c(O)ccc(Cl)c4[C@@](C)(O)[C@H]3C[C@@H]12 [Clortetracycline]
Details | Bliss interaction score
[2] | 0.0785
[3] | -0.24
[4] | 0.161
[5] | -0.0427
